Patent US10696615B2, “Prenylated hydroxystilbenes” (The University of Sydney, priority 2011, dated 2020)

Columns and labels:
[1] = system: HL-60 (TB); assay: NCI in vitro cancer screen, Leukemia; format: cell-based, human; settings: HL-60(TB), unit not printed (M)
[2] = system: K-562; assay: NCI in vitro cancer screen, Leukemia; format: cell-based, human; settings: K-562, unit not printed (M)
[3] = system: MOLT-4; assay: NCI in vitro cancer screen, Leukemia; format: cell-based, human; settings: MOLT, unit not printed (M)
[4] = system: A549/ATCC; assay: NCI in vitro cancer screen, Non-Small Cell Lung Cancer; format: cell-based, human; settings: unit not printed (M)
[5] = system: HOP-62; assay: as above; format: cell-based, human; settings: HOP (first HOP line), unit not printed (M)
[6] = system: HOP-92; assay: as above; format: cell-based, human; settings: HOP (second HOP line), unit not printed (M)
[7] = system: NCI-H226; assay: as above; format: cell-based, human; settings: NCI-H226, unit not printed (M)
[8] = system: NCI-H522; assay: as above; format: cell-based, human; settings: NCI-H522, unit not printed (M)
[9] = system: KM12; assay: NCI in vitro cancer screen, Colon Cancer; format: cell-based, human; settings: KM12, unit not printed (M)
[10] = system: SW-620; assay: NCI in vitro cancer screen, Colon Cancer; format: cell-based, human; settings: SW-620, unit not printed (M)
[11] = system: SF-268; assay: NCI in vitro cancer screen, CNS Cancer; format: cell-based, human; settings: SF-268, unit not printed (M)
[12] = system: SF-295; assay: NCI in vitro cancer screen, CNS Cancer; format: cell-based, human; settings: SF-295, unit not printed (M)
[13] = system: SF-539; assay: NCI in vitro cancer screen, CNS Cancer; format: cell-based; settings: SF-539, unit not printed (M)
[14] = system: SNB-75; assay: NCI in vitro cancer screen, CNS Cancer; format: cell-based, human; settings: SNB-75, unit not printed (M)
[15] = system: LOX IMVI; assay: NCI in vitro cancer screen, Melanoma; format: cell-based, human; settings: unit not printed (M)
[16] = system: MDA-MB-435; assay: NCI in vitro cancer screen, Melanoma; format: cell-based, human; settings: MDA-MB-435, unit not printed (M)
[17] = system: SK-MEL-5; assay: NCI in vitro cancer screen, Melanoma; format: cell-based, human; settings: SK-MEL-5, unit not printed (M)
[18] = system: UACC-62; assay: NCI in vitro cancer screen, Melanoma; format: cell-based, human; settings: UACC-62, unit not printed (M)
[19] = system: IGROV1; assay: NCI in vitro cancer screen, Ovarian Cancer; format: cell-based, human; settings: IGROV1, unit not printed (M)
[20] = system: OVCAR-3; assay: NCI in vitro cancer screen, Ovarian Cancer; format: cell-based, human; settings: OVCAR-3, unit not printed (M)
[21] = system: OVCAR-5; assay: NCI in vitro cancer screen, Ovarian Cancer; format: cell-based, human; settings: OVCAR-5, unit not printed (M)
[22] = system: OVCAR-8; assay: NCI in vitro cancer screen, Ovarian Cancer; format: cell-based, human; settings: OVCAR-8, unit not printed (M)
[23] = system: SK-OV-3; assay: NCI in vitro cancer screen, Ovarian Cancer; format: cell-based, human; settings: SK-OV-3, unit not printed (M)
[24] = system: 786-0; assay: NCI in vitro cancer screen, Renal Cancer; format: cell-based, human; settings: 786-0, unit not printed (M)
[25] = system: A498; assay: NCI in vitro cancer screen, Renal Cancer; format: cell-based, human; settings: A498, unit not printed (M)
[26] = system: RXF-393; assay: NCI in vitro cancer screen, Renal Cancer; format: cell-based, human; settings: Homo sapiens, RXF 393, unit not printed (M)
[27] = system: SN12C; assay: NCI in vitro cancer screen, Renal Cancer; format: cell-based, human; settings: unit not printed (M)
[28] = system: TK-10; assay: NCI in vitro cancer screen, Renal Cancer; format: cell-based, human; settings: TK-10, unit not printed (M)
[29] = system: PC-3; assay: NCI in vitro cancer screen, Prostate Cancer; format: cell-based, human; settings: PC-3, unit not printed (M)
[30] = system: HS 578T; assay: NCI in vitro cancer screen, Breast Cancer; format: cell-based, human; settings: unit not printed (M)
[31] = system: T-47D; assay: NCI in vitro cancer screen, Breast Cancer; format: cell-based, human; settings: unit not printed (M)
[32] = Homo sapiens, read-out: LC50 (the source's name)

## COc1cc(/C=C/c2cc(O)cc(O)c2CC=C(C)C)ccc1O [USYDS10, (E)-2-(3-methyl-2-buten-1-yl)-3,4′,5-trihydroxy-3′-methoxystilbene]
[1]
  TGI: 1.88E−6
[1]; Homo sapiens
  GI50: 327 nM
[1]; [32]
  CC50: > 100 µM
[2]; Homo sapiens, K562
  GI50: 386 nM
[2]; Homo sapiens, K562, read-out: LC50 (the source's name)
  CC50: > 100 µM
[2]
  TGI: 3.17E−5
[3]; Homo sapiens, MOLT-4
  GI50: 596 nM
[3]; Homo sapiens, MOLT-4, read-out: LC50 (the source's name)
  CC50: > 100 µM
[3]
  TGI: 1.99E−5
[4]; Homo sapiens
  GI50: 660 nM
[4]; [32]
  CC50: > 100 µM
[4]
  TGI: 2.25E−5
[5]
  TGI: 1.77E−5
[5]; Homo sapiens, HOP-62
  GI50: 581 nM
[5]; Homo sapiens, HOP-62, read-out: LC50 (the source's name)
  CC50: 42.3 µM
[6]
  TGI: 2.63E−5
[6]; Homo sapiens, HOP-92
  GI50: 398 nM
[6]; Homo sapiens, HOP-92, read-out: LC50 (the source's name)
  CC50: 93.2 µM
[7]; Homo sapiens
  GI50: 5.35 µM
  LC50 (50% lethal concentration): > 100 µM
[7]
  TGI: 3.50E−5
[8]; Homo sapiens
  GI50: 349 nM
[8]; [32]
  CC50: 42.2 µM
[8]
  TGI: 1.46E−5
[9]; Homo sapiens
  GI50: 497 nM
[9]; [32]
  CC50: 85.8 µM
[9]
  TGI: 1.53E−5
[10]; Homo sapiens
  GI50: 362 nM
[10]; [32]
  CC50: 85.5 µM
[10]
  TGI: 2.15E−5
[11]; Homo sapiens
  GI50: 1400 nM
[11]; [32]
  CC50: > 100 µM
[11]
  TGI: 4.96E−5
[12]; Homo sapiens
  GI50: 2010 nM
[12]; [32]
  CC50: > 100 µM
[12]
  TGI: 1.91E−5
[13]; Homo sapiens
  GI50: 376 nM
[13]; [32]
  CC50: 41.7 µM
[13]
  TGI: 1.29E−5
[14]; Homo sapiens
  GI50: 236 nM
[14]; [32]
  CC50: 36.1 µM
[14]
  TGI: 1.22E−5
[15]; Homo sapiens
  GI50: 572 nM
[15]; [32]
  CC50: 80 µM
[15]
  TGI: 1.93E−5
[16]; Homo sapiens
  GI50: 38.5 nM
[16]; [32]
  CC50: > 100 µM
[16]
  TGI: 2.56E−7
[17]; Homo sapiens
  GI50: 291 nM
[17]; [32]
  CC50: 36 µM
[17]
  TGI: 1.27E−5
[18]; Homo sapiens
  GI50: 521 nM
[18]; [32]
  CC50: 42.8 µM
[18]
  TGI: 1.55E−5
[19]; Homo sapiens, IGROV-1
  GI50: 2030 nM
[19]; Homo sapiens, IGROV-1, read-out: LC50 (the source's name)
  CC50: > 100 µM
[19]
  TGI: >1.00E−4
[20]; Homo sapiens
  GI50: 372 nM
[20]; [32]
  CC50: > 100 µM
[20]
  TGI: 2.03E−5
[21]; Homo sapiens
  GI50: 8.92 µM
[21]; [32]
  CC50: 83.1 µM
[21]
  TGI: 2.80E−5
[22]; Homo sapiens
  GI50: 467 nM
[22]; [32]
  CC50: > 100 µM
[22]
  TGI: 6.50E−5
[23]; Homo sapiens
  GI50: 422 nM
[23]; [32]
  CC50: 34.2 µM
[23]
  TGI: 1.14E−5
[24]
  TGI: 2.01E−5
[24]; Homo sapiens
  GI50: 681 nM
  LC50 (50% net cell kill): 74.5 µM
[25]
  TGI: 7.85E−6
[25]; Homo sapiens
  GI50: 2170 nM
[25]; [32]
  CC50: 34.8 µM
[26]
  GI50: 221 nM
[26]; read-out: LC50 (the source's name)
  CC50: 37.6 µM
[27]; Homo sapiens
  GI50: 671 nM
[27]; [32]
  CC50: > 100 µM
[27]
  TGI: 2.98E−5
[28]; Homo sapiens
  GI50: 9.55 µM
  LC50: > 100 µM
[28]
  TGI: 5.15E−5
[29]; Homo sapiens
  GI50: 2270 nM
[29]; [32]
  CC50: > 100 µM
[29]
  TGI: 3.12E−5
[30]; Homo sapiens
  GI50: 292 nM
[30]; [32]
  CC50: > 100 µM
[30]
  TGI: 2.60E−5
[31]; Homo sapiens, T47D
  GI50: 1470 nM
[31]; Homo sapiens, T47D, read-out: LC50 (the source's name)
  CC50: > 100 µM
[31]
  TGI: 2.47E−5
